As a reminder, the IC50 is the concentration needed to halve the response being measured. In general, IC90 refers to the concentration needed for an effect of 90%.

In assay [1] the test system is Human immunodeficiency virus 1. Kind of assay: Inhibition of HIV1 RNase H activity assessed as residual enzyme activity by poly(rA)n.oligo(dT)12-18-directed incorporation of [3H]dTTP into DNA at 100 uM relative to control.
In assay [2] the target is Human immunodeficiency virus type 1 reverse transcriptase (Human immunodeficiency virus 1, UniProt Q72547). Kind of assay: (§1) Inhibition of HIV1 reverse transcriptase activity assessed as residual enzyme activity by poly(rA)n.oligo(dT)12-18-directed incorporation of [3H]dTTP into DNA.
Assay [3] deals with Human immunodeficiency virus type 1 reverse transcriptase (Human immunodeficiency virus 1) (UniProt Q72547). The assay is described as §1.
Assay [4] in a line: Inhibition of HIV2 reverse transcriptase-mediated DNA polymerase activity. Details: species or system Human immunodeficiency virus 2.

With `CCCCCCCCCCCCCCCC(=O)OC[C@H](CO[C@H]1O[C@H](CS(=O)(=O)O)[C@@H](O)[C@H](O)[C@H]1O)OC(=O)CCCCCCCCCCCCCCC`, in assay [1], the Activity is 45%. Moreover, the IC50 in assay [2] is 0.112 µM. Further, the 90% effect concentration (IC90) in assay [3] was 0.465 µM.
Consider `O=S(=O)(O)C[C@H]1O[C@H](OC[C@H](O)CO)[C@H](O)[C@@H](O)[C@@H]1O`, for which the IC50 in assay [2] came out at 75 µM. Besides, in assay [3], the IC90 was more than 100 µM.
Consider `CCCCC/C=C\C/C=C\CCCCCCCC(=O)OC[C@H](CO[C@@H]1O[C@H](CO)[C@H](O)[C@H](O)[C@H]1O)OC(=O)CCCCCCCCCCCCCCC`, for which the Activity in assay [1] came to 100%. The IC50 in assay [2] is 38 µM. Moreover, in assay [3], the concentration for an effect of 90% (IC90) is more than 100 µM.
As to `OC[C@@H](O)CO[C@@H]1O[C@H](CO)[C@H](O)[C@H](O)[C@H]1O`, the 50% inhibitory concentration (IC50) in assay [2] was more than 100 µM.
Regarding `CCCCCCCC/C=C\CCCCCCCC(=O)OC[C@H](CO[C@@H]1O[C@H](CO)[C@H](O)[C@H](O)[C@H]1O)OC(=O)CCCCCCCCCCCCCCC`, in assay [1], the Activity came to 100%. For the same compound, the 50% inhibitory concentration (IC50) in assay [2] is 65 µM. Moreover, the concentration for an effect of 90% (IC90) in assay [3] was more than 100 µM.
On the same counts, the results for `CCCCC/C=C\C/C=C\CCCCCCCC(=O)OC[C@H](CO[C@H]1O[C@H](CS(=O)(=O)O)[C@@H](O)[C@H](OC(=O)CCCCCCCCCCCCCCC)[C@H]1OC(=O)CCCCCCCCCCCCCCC)OC(=O)CCCCCCCCCCCCCCC` are 100%, 2.95 µM and 14 µM.
As for `OC[C@@H](O)CO[C@H]1O[C@H](CO)[C@@H](O)[C@H](O)[C@H]1O`, in assay [2], the IC50 is more than 100 µM.
Still for that read-out and setting: in the case of `OC[C@@H](O)CO[C@@H]1O[C@H](CO[C@H]2O[C@H](CO)[C@H](O)[C@H](O)[C@H]2O)[C@H](O)[C@H](O)[C@H]1O` it was more than 100 µM.
For `CCCCC/C=C\C/C=C\CCCCCCCC(=O)OC[C@H](CO[C@@H]1O[C@H](CO[C@H]2O[C@H](CO)[C@H](O)[C@H](OC(=O)CCCCCCCCCCCCCCC)[C@H]2O)[C@H](O)[C@H](O)[C@H]1O)OC(=O)CCCCCCCCCCCCCCC`, the Activity in assay [1] stood at 100%. Further, the half-inhibitory concentration (IC50) in assay [2] turned out to be 99.4 µM. Also, the 90% effect concentration (IC90) in assay [3] is more than 100 µM.
Consider `CCCCCCCC/C=C\CCCCCCCC(=O)OC[C@H](CO[C@H]1O[C@H](CS(=O)(=O)O)[C@@H](O)[C@H](O)[C@H]1O)OC(=O)CCCCCCCCCCCCCCC`, for which the Activity in assay [1] was found to be 66%. Further, the 50% inhibitory concentration (IC50) is 0.024 µM in assay [2] and 0.034 µM in assay [4]. Also, the concentration for an effect of 90% (IC90) in assay [3] was 0.076 µM.
With `CCCCCCCCCCCCCCCC(=O)OC[C@H](CO[C@@H]1O[C@H](CO)[C@H](O)[C@H](O)[C@H]1O)OC(=O)CCCCCCCCCCCCCCC`, the Activity in assay [1] is 100%. Further, in assay [2], the 50% inhibitory concentration (IC50) was more than 100 µM. The concentration for an effect of 90% (IC90) in assay [3] was more than 100 µM.
On to `CCCCC/C=C\C/C=C\CCCCCCCC(=O)OC[C@H](CO[C@H]1O[C@H](CS(=O)(=O)O)[C@@H](O)[C@H](O)[C@H]1O)OC(=O)CCCCCCCCCCCCCCC`, for which the Activity in assay [1] stood at 100%. Also, the IC50 in assay [2] worked out at 0.077 µM. Besides, the IC90 in assay [3] turned out to be 0.28 µM.

For the origin of these results see ChEMBL document CHEMBL1150919, “The inhibition of the reverse transcriptase of HIV-1 by the natural sulfoglycolipids from cyanobacteria: contribution of different moieties to their high potency” (J Nat Prod, 1998).
